# Compound: O=C(/C=C/c1ccccc1)NC(NC(=S)Nc1cccc2cccnc12)C(Cl)(Cl)Cl [Salubrinal] + O=C(c1cc(Cc2n[nH]c(=O)c3ccccc23)ccc1F)N1CCN(C(=O)C2CC2)CC1 [Olaparib] (partner 8 µM)
# Assay: relative viability (nuclei count vs DMSO), 5 days (fraction); higher = more cells survive
# Conditions: first compound 0.08 µM
# How it was run: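 One day after seeding in 1536-well plates, lung cancer cell lines were dosed by pin tool. Dosing was either single-drug or a fixed anchor-drug dose plus five library-drug doses (not always all listed) in √10 steps. After 5 days, nuclei were stained in one fix-and-stain step and counted on 4× images, and relative viability is the nuclei count of treated wells over that of vehicle wells, given as the median of duplicate plates.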
row,Cell Line,relative viability
1,NCI-H596,0.768
2,LK-2,0.873
3,NCI-H2087,0.476
4,NCI-H358,0.817
5,NCI-H2170,0.65
6,H3255,0.618
7,COR-L23,0.392
8,COR-L 105,0.617
9,IA-LM,0.842
10,LOU-NH91,0.967
11,ChaGo-K-1,0.46
12,NCI-H1793,1.09
13,NCI-H2405,0.951
14,HOP-62,0.318
15,HCC-44,1
16,A549,0.226
17,SK-MES-1,0.769
18,LU99A,0.286
19,BEN,1.33
20,HARA,0.834
21,SW 900,1.04
22,HCC-78,1
23,NCI-H322M,0.806
24,LCLC-97TM1,0.289
25,NCI-H2009,0.758
26,A-427,0.751
27,NCI-H441,0.732

row,Cell Line,relative viability
1,NCI-H661,0.753
2,NCI-H1734,0.699
3,NCI-H460,0.541
4,NCI-H2347,0.595
5,SK-LU-1,0.508
6,NCI-H1395,0.445
7,201T,0.866
8,NCI-H1915,0.256
9,HCC-827,0.684
10,LXF-289,1.27
11,NCI-H23,0.359
12,NCI-H1299,0.98
13,NCI-H647,0.72
14,CAL-12T,0.7
15,NCI-H1651,0.189
16,EPLC-272H,0.913
17,NCI-H2228,0.691
18,NCI-H1792,0.531
19,NCI-H1355,0.775
20,NCI-H3122,0.762
21,NCI-H1437,0.673
22,NCI-H1755,1.01
23,NCI-H2023,0.472
24,HCC-15,0.766
25,PC-14,0.278
26,EKVX,0.986

# Same assay, conditions: first compound 0.253 µM
row,Cell Line,relative viability
1,NCI-H522,0.648
2,NCI-H2342,0.45
3,NCI-H727,0.581
4,NCI-H1650,0.705
5,EBC-1,0.616
6,NCI-H1703,0.721
7,NCI-H1993,0.932
8,SW 1573,0.488
9,NCI-H838,0.542
10,LCLC-103H,0.572
11,NCI-H520,0.361
12,NCI-H2126,0.754
13,EMC-BAC-2,0.513
14,NCI-H2085,0.742
15,Calu-6,0.522
16,NCI-H1666,0.605
17,NCI-H596,0.525
18,LK-2,0.659
19,NCI-H2087,0.493
20,NCI-H358,0.434
21,NCI-H2170,0.632
22,H3255,0.62

row,Cell Line,relative viability
1,COR-L23,0.323
2,COR-L 105,0.732
3,IA-LM,0.83
4,LOU-NH91,0.908
5,ChaGo-K-1,0.404
6,NCI-H1793,0.948
7,NCI-H2405,0.879
8,HOP-62,1.34
9,HCC-44,0.968
10,A549,0.344
11,SK-MES-1,0.694
12,LU99A,0.29
13,BEN,0.935
14,HARA,1.17
15,SW 900,1.07
16,HCC-78,0.964
17,NCI-H322M,0.783
18,LCLC-97TM1,0.345
19,NCI-H2009,0.581
20,A-427,0.7
21,NCI-H441,0.448
22,NCI-H661,0.538

row,Cell Line,relative viability
1,NCI-H1734,0.6
2,NCI-H460,0.606
3,NCI-H2347,0.657
4,SK-LU-1,0.452
5,NCI-H1395,0.448
6,201T,0.61
7,HCC-827,0.646
8,LXF-289,0.918
9,NCI-H23,0.233
10,NCI-H1299,0.947
11,NCI-H647,0.372
12,CAL-12T,0.711
13,NCI-H1651,0.181
14,NCI-H1355,0.903
15,NCI-H3122,1.23
16,NCI-H1437,0.547
17,NCI-H1755,0.937
18,NCI-H2023,0.428
19,HCC-15,0.711
20,PC-14,0.258
21,EKVX,0.816

# Same assay, conditions: first compound 0.8 µM
row,Cell Line,relative viability
1,NCI-H522,0.701
2,NCI-H2342,0.455
3,NCI-H727,0.815
4,NCI-H1650,0.811
5,EBC-1,0.73
6,NCI-H1703,0.416
7,NCI-H1993,0.561
8,SW 1573,0.542
9,NCI-H838,0.832
10,LCLC-103H,0.853
11,NCI-H520,0.325
12,NCI-H2126,0.941
13,EMC-BAC-2,0.525
14,NCI-H2085,0.765
15,Calu-6,0.723
16,HCC-366,0.401
17,NCI-H1666,0.713
18,NCI-H596,0.597
19,LK-2,0.877
20,NCI-H2087,0.784
21,NCI-H358,0.724
22,NCI-H2170,0.668
23,H3255,0.595

row,Cell Line,relative viability
1,COR-L23,0.355
2,COR-L 105,0.592
3,IA-LM,0.935
4,LOU-NH91,0.897
5,ChaGo-K-1,0.449
6,NCI-H1793,0.876
7,NCI-H2405,0.925
8,HOP-62,0.943
9,HCC-44,1.03
10,A549,0.438
11,SK-MES-1,0.845
12,LU99A,0.265
13,BEN,1.16
14,HARA,0.907
15,SW 900,0.892
16,HCC-78,1
17,NCI-H322M,0.766
18,LCLC-97TM1,0.376
19,NCI-H2009,0.547
20,A-427,0.793
21,NCI-H441,0.675
22,NCI-H661,0.76

# Source: the supplement of paper PMC10307832
